# Patent publication US8101760B2, “Glucocorticoid receptor modulator and methods of use” (Eli Lilly and Company, priority 2007, dated 2012)
# Where two headings read alike, the source gives them in different places.
# System: carrageenan-induced paw edema
# Experiment: Carrageenan-induced paw edema (CPE) model
# Assay type: in vivo, rat
# Settings: for ED50: rat, oral gavage 2 h before carrageenan, 3 h after injection, mean of 5
# Description: Carrageenans are a group of polysaccharides which can induce an acute inflammatory response in animals. Cardinal signs of inflammation including edema, hyperalgesia and erythema are developed in the injection site immediately following injection. The CPE model (Winter et al., Proc. Soc. Exp. Biol. Med. 111, 544-547, 1962) is a recognized model of inflammation and can be used to evaluate the antinflammatory effects of glucocorticoid receptor ligands.
# To evaluate the anti-inflammatory effects of Compound (I), the Compound (I) is formulated in a vehicle comprising 0.5% carboxymethyl cellulose and 0.25% Tween 80 then administered orally via gavage to male Sprague-Dawley rats (180-200 g) (Harlan Industries, Indianapolis, Ind.). For comparison, prednisolone is administered orally in the same vehicle. Two hours later, 1% carrageenan in 50 μL of 0.9% pyrogen free saline is injected into the subplantar regions of the right hind paw. Rats are euthanized by CO2 at 3 hours after the carrageenan injection. Paws are removed then weighed using a microbalance. Paws are then immediately immersed into liquid nitrogen until frozen. Frozen paws are dissected by making several cuts on the paw surface then centrifuged to extract the exudates. Exudate levels of IL-1β, a cytokine generated during the inflammatory response, is then measured by ELISA (R&D Systems, Inc., Catalog No. RLB00) using standard techniques. Total paw protein is also measured using a protein assay kit (Pierce Biotechnology, Inc., Rockford, Ill., U.S.A., Catalog No. 1856210) and the absolute level of IL-1β is normalized to yield a concentration value of ng IL-1β/mg total protein.
smiles,measurement,setting,value
"C[C@]12C=CC(=O)C=C1CC[C@@H]1[C@@H]2[C@@H](O)C[C@@]2(C)[C@H]1CC[C@]2(O)C(=O)CO [prednisolone, reference compound]",potency relative to Compound (I) (fold less potent),"rat CPE model, similar conditions",about 5 fold
same,ED50,"read-out: ED50, inhibition of carrageenan induced paw weight gain",~6.6 mg/kg
same,ED50,"read-out: ED50, reduction of paw exudate levels of IL-1β",< 1 mg/kg
